The values below come from paper PMC5218480 (PLoS ONE, 2017).

For the assay, the system named is MV-4-11 cells. The assay can be described thus: Gene expression microarray analysis (Affymetrix PrimeView) and GSEA. In kind it is cell-based, human. Conditions: ProbeSet 11730501_a_at; LIST D. Also on record: RFU PODN (11730768_x_at) / Fold change /veh PODN (11730768_x_at) / RFU LINC00158 (11744669_a_at) / Fold change /veh LINC00158 (11744669_a_at) / RFU DUSP10 (11751237_a_at) / Fold change /veh DUSP10 (11751237_a_at) / RFU ID3 (11757404_x_at) / Fold change /veh ID3 (11757404_x_at) / RFU PLEKHG5 (11737974_s_at) / Fold change /veh PLEKHG5 (11737974_s_at) / RFU LRRC4B (11730491_at) / Fold change /veh LRRC4B (11730491_at) / RFU GIMAP4 (11747438_a_at) / Fold change /veh GIMAP4 (11747438_a_at) / RFU KRT8 (11758183_x_at) / Fold change /veh KRT8 (11758183_x_at) / RFU CNN1 (11734310_a_at) / Fold change /veh CNN1 (11734310_a_at) / RFU VPS37D (11726825_at) / Fold change /veh VPS37D (11726825_at) / RFU C10orf10 (11716522_x_at) / Fold change /veh C10orf10 (11716522_x_at) / RFU KIR2DL2 /// KIR2DL4 /// KIR2DL5A /// KIR2DL5B /// KIR2DS1 /// KIR2DS2 /// KIR2DS3 /// KIR2DS4 /// KIR3DL3 /// KIR3DL3 /// KIR3DS1 (11738374_at) / Fold change /veh KIR2DL2 /// KIR2DL4 /// KIR2DL5A /// KIR2DL5B /// KIR2DS1 /// KIR2DS2 /// KIR2DS3 /// KIR2DS4 /// KIR3DL3 /// KIR3DL3 /// KIR3DS1 (11738374_at) / RFU C1QL1 (11718748_at) / Fold change /veh C1QL1 (11718748_at) / RFU TMPRSS4 (11747572_a_at) / Fold change /veh TMPRSS4 (11747572_a_at) / RFU HAMP (11756126_x_at) / Fold change /veh HAMP (11756126_x_at) / RFU RNFT2 (11725882_a_at) / Fold change /veh RNFT2 (11725882_a_at) / RFU NR4A2 (11747474_a_at) / Fold change /veh NR4A2 (11747474_a_at) / RFU ABCC12 (11746883_a_at) / Fold change /veh ABCC12 (11746883_a_at) / RFU TMEM136 (11760407_x_at) / Fold change /veh TMEM136 (11760407_x_at) / RFU CLDN22 /// WWC2 (11732394_at) / Fold change /veh CLDN22 /// WWC2 (11732394_at) / RFU HLA-DPB1 (11760878_x_at) / Fold change /veh HLA-DPB1 (11760878_x_at) / RFU SPINT1 (11716480_a_at) / Fold change /veh SPINT1 (11716480_a_at) / RFU GAP43 (11754022_s_at) / Fold change /veh GAP43 (11754022_s_at) / RFU A4GNT (11735810_at) / Fold change /veh A4GNT (11735810_at) / RFU PRB3 (11715151_x_at) / Fold change /veh PRB3 (11715151_x_at) / RFU TUBB4B (11761932_at) / Fold change /veh TUBB4B (11761932_at) / RFU CAPN14 (11732068_a_at) / Fold change /veh CAPN14 (11732068_a_at) / RFU TMCC2 (11721928_a_at) / Fold change /veh TMCC2 (11721928_a_at) / RFU IRGQ (11745062_a_at) / Fold change /veh IRGQ (11745062_a_at) / RFU FAM174B (11720279_a_at) / Fold change /veh FAM174B (11720279_a_at) / RFU TMPRSS4 (11748680_a_at) / Fold change /veh TMPRSS4 (11748680_a_at) / RFU FAM212B (11763350_a_at) / Fold change /veh FAM212B (11763350_a_at) / RFU PLEKHG5 (11743358_a_at) / Fold change /veh PLEKHG5 (11743358_a_at) / RFU ZSCAN30 (11745921_a_at) / Fold change /veh ZSCAN30 (11745921_a_at) / RFU CMKLR1 (11741424_a_at) / Fold change /veh CMKLR1 (11741424_a_at) / RFU LOC101060620 /// MAPK8IP1 (11723275_at) / Fold change /veh LOC101060620 /// MAPK8IP1 (11723275_at) / RFU SPTSSB (11747773_x_at) / Fold change /veh SPTSSB (11747773_x_at) / RFU PRSS12 (11739890_at) / Fold change /veh PRSS12 (11739890_at) / RFU BIN1 (11741810_x_at) / Fold change /veh BIN1 (11741810_x_at) / RFU WNT11 (11732464_a_at) / Fold change /veh WNT11 (11732464_a_at) / RFU C10orf10 (11716521_a_at) / Fold change /veh C10orf10 (11716521_a_at) / RFU C5orf56 (11738089_at) / Fold change /veh C5orf56 (11738089_at) / RFU CYB561 (11721691_x_at) / Fold change /veh CYB561 (11721691_x_at) / RFU ANKRD19P (11752326_a_at) / Fold change /veh ANKRD19P (11752326_a_at) / RFU OR2T12 /// OR2T33 /// OR2T8 (11738714_s_at) / Fold change /veh OR2T12 /// OR2T33 /// OR2T8 (11738714_s_at) / RFU VCAN (11748164_a_at) / Fold change /veh VCAN (11748164_a_at) / RFU JSRP1 (11732532_at) / Fold change /veh JSRP1 (11732532_at) / RFU KRTAP10-11 (11738290_x_at) / Fold change /veh KRTAP10-11 (11738290_x_at) / RFU MYO3A (11730013_a_at) / Fold change /veh MYO3A (11730013_a_at) / RFU EBF3 (11725865_a_at) / Fold change /veh EBF3 (11725865_a_at) / RFU CAMK2N1 (11719241_x_at) / Fold change /veh CAMK2N1 (11719241_x_at) / RFU C5orf56 (11738088_a_at) / Fold change /veh C5orf56 (11738088_a_at) / RFU OLFML3 (11715873_a_at) / Fold change /veh OLFML3 (11715873_a_at) / RFU LOC100653217 /// NTM (11731650_a_at) / Fold change /veh LOC100653217 /// NTM (11731650_a_at) / RFU MAPK11 (11762145_a_at) / Fold change /veh MAPK11 (11762145_a_at) / RFU FIZ1 (11724087_x_at) / Fold change /veh FIZ1 (11724087_x_at) / RFU OASL (11726364_x_at) / Fold change /veh OASL (11726364_x_at) / RFU SOX15 (11748057_x_at) / Fold change /veh SOX15 (11748057_x_at) / RFU CD79A (11719716_a_at) / Fold change /veh CD79A (11719716_a_at) / RFU HIST1H1D (11736915_at) / Fold change /veh HIST1H1D (11736915_at) / RFU CASKIN2 (11723855_a_at) / Fold change /veh CASKIN2 (11723855_a_at) / RFU LOC730098 (11760151_x_at) / Fold change /veh LOC730098 (11760151_x_at) / RFU OR4N2 (11742367_at) / Fold change /veh OR4N2 (11742367_at) / RFU PRRT2 (11749266_a_at) / Fold change /veh PRRT2 (11749266_a_at) / RFU SNX32 (11753110_a_at) / Fold change /veh SNX32 (11753110_a_at) / RFU CDHR5 (11726645_a_at) / Fold change /veh CDHR5 (11726645_a_at) / RFU RCAN1 (11760418_a_at) / Fold change /veh RCAN1 (11760418_a_at) / RFU FAM167A (11723789_a_at) / Fold change /veh FAM167A (11723789_a_at) / RFU FAM26E (11764081_at) / Fold change /veh FAM26E (11764081_at) / RFU ISYNA1 (11749810_s_at) / Fold change /veh ISYNA1 (11749810_s_at) / RFU ACY1 (11761880_at) / Fold change /veh ACY1 (11761880_at) / RFU 11764098_at / Fold change /veh 11764098_at / RFU SAMD14 (11745864_x_at) / Fold change /veh SAMD14 (11745864_x_at) / RFU NPB (11741838_a_at) / Fold change /veh NPB (11741838_a_at) / RFU TMPRSS6 (11731388_a_at) / Fold change /veh TMPRSS6 (11731388_a_at) / RFU KRTAP10-2 (11738614_at) / Fold change /veh KRTAP10-2 (11738614_at) / RFU ARHGAP8 /// PRR5-ARHGAP8 (11727945_x_at) / Fold change /veh ARHGAP8 /// PRR5-ARHGAP8 (11727945_x_at) / RFU KRTAP5-7 /// NADSYN1 (11734609_at) / Fold change /veh KRTAP5-7 /// NADSYN1 (11734609_at) / RFU RASL12 (11751679_a_at) / Fold change /veh RASL12 (11751679_a_at) / RFU CDKN2B (11736163_a_at) / Fold change /veh CDKN2B (11736163_a_at) / RFU PRF1 (11729649_at) / Fold change /veh PRF1 (11729649_at) / RFU, ZNF638 /// ZNF638-IT1 / Fold change vs veh, ZNF638 /// ZNF638-IT1 / RFU, PANK3 / Fold change vs veh, PANK3 / RFU, SH3YL1 / Fold change vs veh, SH3YL1 / RFU, ZEB2 / Fold change vs veh, ZEB2 / RFU, NRIP1 / Fold change vs veh, NRIP1 / RFU, PTTG1IP / Fold change vs veh, PTTG1IP / RFU, CAPN2 / Fold change vs veh, CAPN2 / RFU, MED14 / Fold change vs veh, MED14 / RFU, SNORA58 / Fold change vs veh, SNORA58 / RFU, C1orf63 / Fold change vs veh, C1orf63 / RFU, LRRFIP1 / Fold change vs veh, LRRFIP1 / RFU, NDUFAF7 / Fold change vs veh, NDUFAF7 / RFU, SLC12A2 / Fold change vs veh, SLC12A2 / RFU, IBTK / Fold change vs veh, IBTK / RFU, ESF1 / Fold change vs veh, ESF1 / Fold change vs veh, TMEM50B / RFU, TAOK1 / Fold change vs veh, TAOK1 / RFU, ACBD3 / Fold change vs veh, ACBD3 / RFU, TMA16 / Fold change vs veh, TMA16 / RFU, RWDD3 / Fold change vs veh, RWDD3 / RFU, BCAT1 / Fold change vs veh, BCAT1 / RFU, EDEM3 / Fold change vs veh, EDEM3 / RFU, TMEM33 / Fold change vs veh, TMEM33 / RFU, WDR75 / Fold change vs veh, WDR75 / RFU, AHCTF1 / Fold change vs veh, AHCTF1 / RFU, TFRC / Fold change vs veh, TFRC / RFU, ZDHHC17 / Fold change vs veh, ZDHHC17 / RFU, NOM1 / Fold change vs veh, NOM1 / RFU, ARL8B / Fold change vs veh, ARL8B / RFU, ZBTB11 / Fold change vs veh, ZBTB11 / RFU, TAMM41 / Fold change vs veh, TAMM41 / RFU, KIAA1704 /// LOC100996395 / Fold change vs veh, KIAA1704 /// LOC100996395 / RFU, ING1 / Fold change vs veh, ING1 / RFU, TRMT61B / Fold change vs veh, TRMT61B / RFU, FUBP3 / Fold change vs veh, FUBP3 / RFU, TP53 / Fold change vs veh, TP53 / RFU, TNKS2 / Fold change vs veh, TNKS2 / RFU, ZFP14 / Fold change vs veh, ZFP14 / RFU, ACTR2 / Fold change vs veh, ACTR2 / RFU, PPP3R1 / Fold change vs veh, PPP3R1 / RFU, PIK3R1 / Fold change vs veh, PIK3R1 / RFU, HNRNPA1 / Fold change vs veh, HNRNPA1 / RFU, RNF170 / Fold change vs veh, RNF170 / RFU, ZNF28 / Fold change vs veh, ZNF28 / RFU, RNGTT / Fold change vs veh, RNGTT / RFU, OGT / Fold change vs veh, OGT / RFU, BRD1 / Fold change vs veh, BRD1 / RFU, MARS / Fold change vs veh, MARS / RFU, ZNF655 / Fold change vs veh, ZNF655 / RFU, FAHD1 / Fold change vs veh, FAHD1 / RFU, BDP1 / Fold change vs veh, BDP1 / RFU, LRRCC1 / Fold change vs veh, LRRCC1 / RFU, ARID1A / Fold change vs veh, ARID1A / RFU, ZNF146 / Fold change vs veh, ZNF146 / RFU, ZNF330 / Fold change vs veh, ZNF330 / RFU, GPN3 / Fold change vs veh, GPN3 / RFU, C9orf123 / Fold change vs veh, C9orf123 / RFU, N4BP2L2 / Fold change vs veh, N4BP2L2 / RFU, ARFIP1 / Fold change vs veh, ARFIP1 / RFU, FAM179B / Fold change vs veh, FAM179B / RFU, BCL10 / Fold change vs veh, BCL10 / RFU, UHRF1BP1L / Fold change vs veh, UHRF1BP1L / RFU, BET1 / Fold change vs veh, BET1 / RFU, CNOT2 / Fold change vs veh, CNOT2 / RFU, ZNF268 / Fold change vs veh, ZNF268 / Fold change vs veh, ZNF507 / RFU, DGCR2 / Fold change vs veh, DGCR2 / RFU, WDSUB1 / Fold change vs veh, WDSUB1 / Fold change vs veh, HSP90B1 /// MIR3652 / RFU, ADSS / Fold change vs veh, ADSS / RFU, GK / Fold change vs veh, GK / RFU, ZNF148 / Fold change vs veh, ZNF148 / RFU, TAF9 / Fold change vs veh, TAF9 / RFU, SLC1A5 / Fold change vs veh, SLC1A5 / RFU, SLMO2 / Fold change vs veh, SLMO2 / RFU, ABCC4 / Fold change vs veh, ABCC4 / RFU, LOC101060439 /// RAP1B / Fold change vs veh, LOC101060439 /// RAP1B / RFU, RFX7 / Fold change vs veh, RFX7 / RFU, GTPBP10 / Fold change vs veh, GTPBP10 / RFU, CNEP1R1 / Fold change vs veh, CNEP1R1 / RFU, BIVM-ERCC5 /// ERCC5 / Fold change vs veh, BIVM-ERCC5 /// ERCC5 / RFU, ILF3 / Fold change vs veh, ILF3 / RFU 11762660_at / Fold change /veh 11762660_at / RFU VCAN (11757783_s_at) / Fold change /veh VCAN (11757783_s_at) / RFU DDX43 (11728927_at) / Fold change /veh DDX43 (11728927_at) / RFU KRT8 (11758188_x_at) / Fold change /veh KRT8 (11758188_x_at) / RFU NKD1 (11759106_at) / Fold change /veh NKD1 (11759106_at) / RFU SRD5A1 (11742802_a_at) / Fold change /veh SRD5A1 (11742802_a_at) / RFU TPSAB1 /// TPSB2 (11721975_s_at) / Fold change /veh TPSAB1 /// TPSB2 (11721975_s_at) / RFU GSTM3 (11746129_a_at) / Fold change /veh GSTM3 (11746129_a_at) / RFU IL23R (11737362_x_at) / Fold change /veh IL23R (11737362_x_at) / RFU TMEM51 (11727254_a_at) / Fold change /veh TMEM51 (11727254_a_at) / RFU PIWIL2 (11732686_x_at) / Fold change /veh PIWIL2 (11732686_x_at) / RFU ORM1 (11744905_x_at) / Fold change /veh ORM1 (11744905_x_at) / RFU CCDC152 (11743942_at) / Fold change /veh CCDC152 (11743942_at) / RFU ECM1 (11717891_a_at) / Fold change /veh ECM1 (11717891_a_at) / RFU IL23R (11748794_a_at) / Fold change /veh IL23R (11748794_a_at) / RFU TNFAIP8L3 (11732012_x_at) / Fold change /veh TNFAIP8L3 (11732012_x_at) / RFU MBOAT4 (11741988_at) / Fold change /veh MBOAT4 (11741988_at) / RFU 11764193_at / Fold change /veh 11764193_at / RFU TMEM53 (11763286_at) / Fold change /veh TMEM53 (11763286_at) / RFU MAGEB2 (11727129_at) / Fold change /veh MAGEB2 (11727129_at) / RFU TMEM200A (11744735_a_at) / Fold change /veh TMEM200A (11744735_a_at) / RFU CCDC152 (11751479_a_at) / Fold change /veh CCDC152 (11751479_a_at) / RFU FAM211A (11726209_a_at) / Fold change /veh FAM211A (11726209_a_at) / RFU RGS16 (11746705_a_at) / Fold change /veh RGS16 (11746705_a_at) / RFU VCAN (11755009_s_at) / Fold change /veh VCAN (11755009_s_at) / RFU RHOB (11743442_s_at) / Fold change /veh RHOB (11743442_s_at) / RFU RGS16 (11720943_a_at) / Fold change /veh RGS16 (11720943_a_at) / RFU RGS16 (11720944_at) / Fold change /veh RGS16 (11720944_at) / RFU, VPS4B / Fold change vs veh, VPS4B / RFU, CREB1 / Fold change vs veh, CREB1 / RFU, DNAJC13 / Fold change vs veh, DNAJC13 / RFU, GNAQ / Fold change vs veh, GNAQ / RFU, CDK5R1 / Fold change vs veh, CDK5R1 / RFU, ZRANB3 / Fold change vs veh, ZRANB3 / RFU, CUL4A / Fold change vs veh, CUL4A / RFU, CCNY / Fold change vs veh, CCNY / RFU, UFL1 / Fold change vs veh, UFL1 / RFU, COG3 / Fold change vs veh, COG3 / RFU, DIAPH2 / Fold change vs veh, DIAPH2 / RFU, SKA2 / Fold change vs veh, SKA2 / RFU, AFF3 / Fold change vs veh, AFF3 / RFU, LMF1 / Fold change vs veh, LMF1 / RFU, IPO11 / Fold change vs veh, IPO11 / RFU, DFFB / Fold change vs veh, DFFB / RFU, FOXP1 / Fold change vs veh, FOXP1 / RFU, CARD8 / Fold change vs veh, CARD8 / RFU, STRN3 / Fold change vs veh, STRN3 / RFU, ADK / Fold change vs veh, ADK / RFU, RASSF2 / Fold change vs veh, RASSF2 / RFU, WIPF1 / Fold change vs veh, WIPF1 / RFU, LARP1B / Fold change vs veh, LARP1B / RFU, RASA1 / Fold change vs veh, RASA1 / RFU, RB1 / Fold change vs veh, RB1 / RFU, PPFIA1 / Fold change vs veh, PPFIA1 / RFU, MAT2A / Fold change vs veh, MAT2A / RFU, CCT5 / Fold change vs veh, CCT5 / RFU, WDR92 / Fold change vs veh, WDR92 / RFU, CUX1 / Fold change vs veh, CUX1 / RFU, TTC7A / Fold change vs veh, TTC7A / RFU, TMEM135 / Fold change vs veh, TMEM135 / RFU, DEPTOR / Fold change vs veh, DEPTOR / RFU, CPM / Fold change vs veh, CPM / RFU, DNAJB6 / Fold change vs veh, DNAJB6 / RFU, CACNA2D3 / Fold change vs veh, CACNA2D3 / RFU, DTX4 / Fold change vs veh, DTX4 / RFU, TFCP2 / Fold change vs veh, TFCP2 / RFU, GMCL1 /// GMCL1P1 / Fold change vs veh, GMCL1 /// GMCL1P1 / RFU, AEBP2 / Fold change vs veh, AEBP2 / RFU, SNHG1 /// SNORD22 /// SNORD25 /// SNORD26 /// SNORD27 /// SNORD28 /// SNORD29 /// SNORD31 / Fold change vs veh, SNHG1 /// SNORD22 /// SNORD25 /// SNORD26 /// SNORD27 /// SNORD28 /// SNORD29 /// SNORD31 / Fold change (Aza/veh), C12orf56 (ProbeSet 11735607_a_at) / Fold change (ACY-1035/veh), C12orf56 (ProbeSet 11735607_a_at) / Fold change (Aza/veh), FGFR1OP (ProbeSet 11751329_s_at) / Fold change (ACY-1035/veh), FGFR1OP (ProbeSet 11751329_s_at) / Fold change (Aza/veh), VPS36 (ProbeSet 11739960_a_at) / Fold change (ACY-1035/veh), VPS36 (ProbeSet 11739960_a_at) / RFU SYPL1 (11715823_x_at) / Fold change /veh SYPL1 (11715823_x_at) / RFU IGFBP7 (11715501_s_at) / Fold change /veh IGFBP7 (11715501_s_at) / RFU REEP3 (11722064_at) / Fold change /veh REEP3 (11722064_at) / RFU IGLL1 (11728026_x_at) / Fold change /veh IGLL1 (11728026_x_at): dose or concentration left out as unconfirmed.

Take `Nc1ccc(-c2cccs2)cc1NC(=O)c1ccc2c(c1)cc(C1CC1)n2CCN1CCOCC1` [ACY-1035]: the “Fold change vs veh, CACNA2D3” value worked out at 1.05.
